Results reported in BindingDB's records for doi:10.1002/bip.20588 (University of California Davis, 2006).
*1 amine or outer side, *2 acyl side, *3 side chain or, on linkers, in order; H or OH if unused. Where a SMILES comes first, the peptide text is derived from it. [ ]: non-standard residue; d: D form. The star is where a group is joined. ξ: configuration not given here. X1 = O=C(Cc1ccc(N[*:1])cc1)[*:2]; Ile(3ξ) = CCC(C)[C@H](N)C(=O)O; X4 = O=C(Cc1ccccc1N[*:1])[*:2]; NH(2-Me-phenyl) = Cc1ccccc1N*; β3hP = O=C(O)C[C@@H]1CCCN1; β3hD = NC(CC(=O)O)CC(=O)O; Nle = CCCC[C@H](N)C(=O)O; Abu = CC[C@H](N)C(=O)O; Dap = NC[C@H](N)C(=O)O; Ac3c = NC1(C(=O)O)CC1; Aib = CC(C)(N)C(=O)O; CO = O=C([*:1])[*:2]; Butyryl = CCCC(=O)*; X10 = Brc1ccccc1N*

What follows are compounds tested against Integrin alpha-4/beta-1 (Homo sapiens, UniProt P05556+P13612, T112H) (assay: Jurkat Cell Adhesion Inhibition Assay). Conditions: not given.
Procedure: Binding affinities (IC50) of the ligands were studied in a Jurkat cell adhesion assay by inhibiting the alpha-4/beta-1 mediated cell adhesion to CS-1 peptides. The 96-well plates were coated with neutravidin, followed by biotinconjugated CS-1 peptides. Jurkat cells with series dilutions of tested ligands in binding buffer were added and allowed to bind for 30 min. Bound cells were recorded using a 96-well plate reader at 570 nm. IC50 values were calculated from inhibition curves resulting from the concentration-dependent inhibition
`CCCC[C@H](NC(=O)Cc1ccc(NC(=O)Nc2ccccc2C)cc1)C(=O)N[C@@H](CC(=O)O)CC(=O)N[C@H](C(=O)N1CCC[C@H]1C(N)=O)C(C)CC` (stereo partly drawn) [(3R)-4-{[(2S,3R)-1-[(2S)-2-carbamoylpyrrolidin-1-yl]-3-methyl-1-oxopentan-2-yl]carbamoyl}-3-[(2S)-2-[1-(4-{[(2-methylphenyl)carbamoyl]amino}phenyl)acetamido]hexanamido]butanoic acid] ({NH(2-Me-phenyl)-CO}-[X1][Nle][β3hD][Ile(3ξ)]P-NH2) gave an IC50 of 4 nM. `CCCC[C@H](NC(=O)Cc1ccc(NC(=O)Nc2ccccc2C)cc1)C(=O)N[C@@H](CC(=O)O)C(=O)NC(C)(C)C(=O)N1CCC[C@H]1C(N)=O` [(3S)-3-({1-[(2S)-2-carbamoylpyrrolidin-1-yl]-2-methyl-1-oxopropan-2-yl}carbamoyl)-3-[(2S)-2-[1-(4-{[(2-methylphenyl)carbamoyl]amino}phenyl)acetamido]hexanamido]propanoic acid] ({NH(2-Me-phenyl)-CO}-[X1][Nle]D[Aib]P-NH2) gave an IC50 of 13 nM. Compound `CCCC[C@H](NC(=O)Cc1ccc(NC(=O)Nc2ccccc2C)cc1)C(=O)N[C@@H](CC(=O)O)C(=O)NC1(C(=O)N2CCC[C@H]2C(N)=O)CC1` [(3S)-3-[(1-{[(2S)-2-carbamoylpyrrolidin-1-yl]carbonyl}cyclopropyl)carbamoyl]-3-[(2S)-2-[1-(4-{[(2-methylphenyl)carbamoyl]amino}phenyl)acetamido]hexanamido]propanoic acid] ({NH(2-Me-phenyl)-CO}-[X1][Nle]D[Ac3c]P-NH2) has an IC50 of 9.2 nM. In the case of `CCCC[C@H](NC(=O)Cc1ccc(NC(=O)Nc2ccccc2Br)cc1)C(=O)N[C@@H](CC(=O)O)C(=O)N[C@H](C(=O)N1CCC[C@H]1C(N)=O)C(C)CC` (stereo partly drawn) [(3S)-3-[(2S)-2-[1-(4-{[(2-bromophenyl)carbamoyl]amino}phenyl)acetamido]hexanamido]-3-{[(2S,3S)-1-[(2S)-2-carbamoylpyrrolidin-1-yl]-3-methyl-1-oxopentan-2-yl]carbamoyl}propanoic acid] ({X10-CO}-[X1][Nle]D[Ile(3ξ)]P-NH2), the IC50 is reported as 4.8 nM. Work on `CCCC(=O)NC[C@H](NC(=O)Cc1ccc(NC(=O)Nc2ccccc2C)cc1)C(=O)N[C@@H](CC(=O)O)C(=O)N[C@H](C(=O)N1CCC[C@H]1C(N)=O)C(C)CC` (stereo partly drawn) [(3S)-3-[(2S)-3-butanamido-2-[1-(4-{[(2-methylphenyl)carbamoyl]amino}phenyl)acetamido]propanamido]-3-{[(2S,3S)-1-[(2S)-2-carbamoylpyrrolidin-1-yl]-3-methyl-1-oxopentan-2-yl]carbamoyl}propanoic acid] ({NH(2-Me-phenyl)-CO}-[X1][Dap](Butyryl)D[Ile(3ξ)]P-NH2) yielded an IC50 of 138 nM. `CCCC[C@H](NC(=O)Cc1ccc(NC(=O)Nc2ccccc2C)cc1)C(=O)N[C@@H](CC(=O)O)C(=O)N[C@@H](CC)C(=O)N1CCC[C@H]1C(N)=O` [(3S)-3-{[(2S)-1-[(2S)-2-carbamoylpyrrolidin-1-yl]-1-oxobutan-2-yl]carbamoyl}-3-[(2S)-2-[1-(4-{[(2-methylphenyl)carbamoyl]amino}phenyl)acetamido]hexanamido]propanoic acid] ({NH(2-Me-phenyl)-CO}-[X1][Nle]D[Abu]P-NH2) showed an IC50 of 2.9 nM. Compound `CCCC[C@H](NC(=O)Cc1ccc(NC(=O)Nc2ccccc2C)cc1)C(=O)N[C@@H](CC(=O)O)C(=O)N[C@H](C(=O)N1CCC[C@H]1C(N)=O)C(C)C` [(3S)-3-{[(2S)-1-[(2S)-2-carbamoylpyrrolidin-1-yl]-3-methyl-1-oxobutan-2-yl]carbamoyl}-3-[(2S)-2-[1-(4-{[(2-methylphenyl)carbamoyl]amino}phenyl)acetamido]hexanamido]propanoic acid] ({NH(2-Me-phenyl)-CO}-[X1][Nle]DVP-NH2) has an IC50 of 0.6 nM. `CCCC[C@H](NC(=O)Cc1ccccc1NC(=O)Nc1ccccc1C)C(=O)N[C@@H](CC(=O)O)C(=O)N[C@H](C(=O)N1CCC[C@H]1C(N)=O)C(C)CC` (stereo partly drawn) [(3S)-3-{[(2S,3S)-1-[(2S)-2-carbamoylpyrrolidin-1-yl]-3-methyl-1-oxopentan-2-yl]carbamoyl}-3-[(2S)-2-[1-(2-{[(2-methylphenyl)carbamoyl]amino}phenyl)acetamido]hexanamido]propanoic acid] ({NH(2-Me-phenyl)-CO}-[X4][Nle]D[Ile(3ξ)]P-NH2) was tested, and the IC50 was 3000 nM.

Same assay, conditions: pH 7.5; 22 °C
`CCCC[C@H](NC(=O)Cc1ccc(NC(=O)Nc2ccccc2C)cc1)C(=O)N[C@@H](CC(=O)O)C(=O)N[C@H](C(=O)NC1CCCC1C(N)=O)C(C)CC` (stereo partly drawn) [(3S)-3-{[(1S,2S)-1-[(2-carbamoylcyclopentyl)carbamoyl]-2-methylbutyl]carbamoyl}-3-[(2S)-2-[1-(4-{[(2-methylphenyl)carbamoyl]amino}phenyl)acetamido]hexanamido]propanoic acid] showed an IC50 of 3.4 nM. Compound `CCCC[C@H](NC(=O)Cc1ccc(NC(=O)Nc2ccccc2C)cc1)C(=O)N[C@@H](CC(=O)O)C(=O)N[C@H](C(=O)Nc1cccc(C(N)=O)c1)C(C)CC` (stereo partly drawn) [(3S)-3-{[(1S,2S)-1-[(3-carbamoylphenyl)carbamoyl]-2-methylbutyl]carbamoyl}-3-[(2S)-2-[1-(4-{[(2-methylphenyl)carbamoyl]amino}phenyl)acetamido]hexanamido]propanoic acid] has an IC50 of 3.3 nM. With `CCCC[C@H](NC(=O)Cc1ccc(NC(=O)Nc2ccccc2C)cc1)C(=O)N[C@@H](CC(=O)O)C(=O)N[C@H](C(=O)NC1CC[C@@H]2SC[C@@H](C(N)=O)N2C1=O)[C@@H](C)CC` (stereo partly drawn) [(3S)-3-{[(1S,2S)-1-{[(3R,8aS)-3-carbamoyl-5-oxo-hexahydro-2H-pyrido[2,1-b][1,3]thiazol-6-yl]carbamoyl}-2-methylbutyl]carbamoyl}-3-[(2S)-2-[1-(4-{[(2-methylphenyl)carbamoyl]amino}phenyl)acetamido]hexanamido]propanoic acid] the IC50 was 3.4 nM. `CCCC[C@H](NC(=O)Cc1ccc(NC(=O)Nc2ccccc2C)cc1)C(=O)N[C@@H](CC(=O)O)C(=O)N[C@H](C(=O)N1CCCC(C(N)=O)C1)C(C)CC` (stereo partly drawn) [(3S)-3-{[(2S,3S)-1-(3-carbamoylpiperidin-1-yl)-3-methyl-1-oxopentan-2-yl]carbamoyl}-3-[(2S)-2-[1-(4-{[(2-methylphenyl)carbamoyl]amino}phenyl)acetamido]hexanamido]propanoic acid] was tested, and the IC50 was 4 nM. Work on `CCCC[C@H](NC(=O)Cc1ccc(NC(=O)Nc2ccccc2C)cc1)C(=O)N[C@@H](CC(=O)O)C(=O)N[C@H](C(=O)N1CCC(C(N)=O)CC1)C(C)CC` (stereo partly drawn) [(3S)-3-{[(2S,3S)-1-(4-carbamoylpiperidin-1-yl)-3-methyl-1-oxopentan-2-yl]carbamoyl}-3-[(2S)-2-[1-(4-{[(2-methylphenyl)carbamoyl]amino}phenyl)acetamido]hexanamido]propanoic acid] yielded an IC50 of 3.3 nM. With `CCCC[C@H](NC(=O)Cc1ccc(NC(=O)Nc2ccccc2C)cc1)C(=O)N[C@@H](CC(=O)O)C(=O)N[C@H](C(=O)N1CCC2(CC1)C(=O)N(CC(N)=O)CN2c1ccccc1)C(C)CC` (stereo partly drawn) [(3S)-3-{[(2S,3S)-1-[3-(carbamoylmethyl)-4-oxo-1-phenyl-1,3,8-triazaspiro[4.5]decan-8-yl]-3-methyl-1-oxopentan-2-yl]carbamoyl}-3-[(2S)-2-[1-(4-{[(2-methylphenyl)carbamoyl]amino}phenyl)acetamido]hexanamido]propanoic acid] the IC50 was 29 nM. For `CCCC[C@H](NC(=O)Cc1ccc(NC(=O)Nc2ccccc2C)cc1)C(=O)N[C@@H](CC(=O)O)C(=O)N[C@H](C(=O)N1CCCC[C@@H]1C(N)=O)C(C)CC` (stereo partly drawn) [(3S)-3-{[(2S,3S)-1-[(2R)-2-carbamoylpiperidin-1-yl]-3-methyl-1-oxopentan-2-yl]carbamoyl}-3-[(2S)-2-[1-(4-{[(2-methylphenyl)carbamoyl]amino}phenyl)acetamido]hexanamido]propanoic acid], the IC50 was 3 nM. Compound `CCCC[C@H](NC(=O)Cc1ccc(NC(=O)Nc2ccccc2C)cc1)C(=O)N[C@@H](CC(=O)O)C(=O)N[C@H](C(=O)N1CCC[C@@H]1C(N)=O)C(C)CC` (stereo partly drawn) [(3S)-3-{[(2S,3S)-1-[(2R)-2-carbamoylpyrrolidin-1-yl]-3-methyl-1-oxopentan-2-yl]carbamoyl}-3-[(2S)-2-[1-(4-{[(2-methylphenyl)carbamoyl]amino}phenyl)acetamido]hexanamido]propanoic acid] has an IC50 of 2.9 nM. `CCCC[C@H](NC(=O)Cc1ccc(NC(=O)Nc2ccccc2C)cc1)C(=O)N[C@@H](CC(=O)O)C(=O)N[C@H](C(=O)N1CCC[C@H]1CC(N)=O)C(C)CC` (stereo partly drawn) [(3S)-3-{[(2S,3S)-1-[(2S)-2-(carbamoylmethyl)pyrrolidin-1-yl]-3-methyl-1-oxopentan-2-yl]carbamoyl}-3-[(2S)-2-[1-(4-{[(2-methylphenyl)carbamoyl]amino}phenyl)acetamido]hexanamido]propanoic acid] ({NH(2-Me-phenyl)-CO}-[X1][Nle]D[Ile(3ξ)][β3hP]-NH2) was tested, and the IC50 was 3.1 nM. `CCCC[C@H](NC(=O)Cc1ccc(NC(=O)Nc2ccccc2C)cc1)C(=O)N[C@@H](CC(=O)O)C(=O)N[C@H](C(=O)N1CC(O)C[C@H]1C(N)=O)C(C)CC` (stereo partly drawn) [(3S)-3-{[(2S,3S)-1-[(2S)-2-carbamoyl-4-hydroxypyrrolidin-1-yl]-3-methyl-1-oxopentan-2-yl]carbamoyl}-3-[(2S)-2-[1-(4-{[(2-methylphenyl)carbamoyl]amino}phenyl)acetamido]hexanamido]propanoic acid] was tested, and the IC50 was 3 nM. For `CCCC[C@H](NC(=O)Cc1ccc(NC(=O)Nc2ccccc2C)cc1)C(=O)N[C@@H](CC(=O)O)C(=O)N[C@H](C(=O)N1CCCC[C@H]1C(N)=O)C(C)CC` (stereo partly drawn) [(3S)-3-{[(2S,3S)-1-[(2S)-2-carbamoylpiperidin-1-yl]-3-methyl-1-oxopentan-2-yl]carbamoyl}-3-[(2S)-2-[1-(4-{[(2-methylphenyl)carbamoyl]amino}phenyl)acetamido]hexanamido]propanoic acid], the IC50 was 1.4 nM.
